Laboratory results from patent US11426397B2, “Piperidinyl- and piperazinyl-substituted heteroaromatic carboxamides as modulators of GPR6” (TAKEDA PHARMACEUTICAL COMPANY LIMITED, priority 2017, dated 2022).

Target: T1, GPR6 receptor expressed in CHO-K1 cells (Homo sapiens, UniProt P46095)
T1 construct: expressed in transfected cells
Assay: In vitro inhibition of cAMP (EC50), cell-based HTRF cAMP assay
Conditions: inhibition of constitutive cAMP activity of GPR6 in CHO-K1 cells
Outline: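 Tetracycline-inducible CHO-K1 line, GPR6 expression induced 20 h with 2 μg/mL doxycycline. Compounds incubated 45 min at 37 °C in Ringer's buffer (pH 7.4) with 0.5% fatty acid free BSA and 300 μM IBMX. Constitutive cAMP read by Lance HTRF; EC50 from four-parameter logistic fit.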

T1 sequence (P46095 whole entry): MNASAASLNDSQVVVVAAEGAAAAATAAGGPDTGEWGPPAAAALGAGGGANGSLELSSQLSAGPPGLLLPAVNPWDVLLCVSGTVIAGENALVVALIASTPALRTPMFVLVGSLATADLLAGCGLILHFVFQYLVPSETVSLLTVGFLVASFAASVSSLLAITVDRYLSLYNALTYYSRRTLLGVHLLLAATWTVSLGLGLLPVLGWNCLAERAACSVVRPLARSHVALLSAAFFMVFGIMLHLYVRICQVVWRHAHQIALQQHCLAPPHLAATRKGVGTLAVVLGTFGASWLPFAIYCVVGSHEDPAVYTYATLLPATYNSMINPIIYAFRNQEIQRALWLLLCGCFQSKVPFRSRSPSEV

SMILES | pEC50, in vitro inhibition of cAMP
Cn1ccnc1C(=O)Nc1cc(C#N)ccc1N1CCC(Oc2ccc(F)cc2F)CC1 [Example 50, N-(5-cyano-2-(4-(2,4-difluorophenoxy)piperidin-1-yl)phenyl)-1-methyl-1H-imidazole-2-carboxamide] | 6.2
COc1nc(C)ccc1C(=O)Nc1cc(C#N)c(F)cc1N1CCC(Oc2ccc(F)cc2F)CC1 [Example 39, N-(5-cyano-2-(4-(2,4-difluorophenoxy)piperidin-1-yl)-4-fluorphenyl)-2-methoxy-6-methylnicotinamide] | 7.3
N#Cc1ccc(N2CCC(Oc3ccc(F)cc3F)CC2)c(NC(=O)c2cc3cccn3cn2)c1 [Example 48, N-(5-cyano-2-(4-(2,4-difluorophenoxy)piperidin-1-yl)phenyl)pyrrolo[1,2-c]pyrimidine-3-carboxamide] | 6.8
Cc1cc(C(=O)Nc2cc(C#N)ccc2N2CCC(Oc3ccc(F)cc3F)CC2)nn1C [Example 113, N-(5-cyano-2-(4-(2,4-difluorophenoxy)piperidin-1-yl)phenyl)-1,5-dimethyl-1H-pyrazole-3-carboxamide] | 6.9
COc1ncccc1C(=O)Nc1cnccc1N1CCC(Oc2ccc(F)cc2F)CC1 [Example 264] | 6.8
CN(C(=O)c1ccccc1O)c1ccccc1N1CCN(C(=O)c2ccc(Cl)cc2)CC1 [Example 260] | 4.9
COc1cccc(C)c1C(=O)Nc1cc(C#N)ccc1N1CCC(Oc2ccc(F)cc2F)CC1 [Example 227, N-(5-cyano-2-(4-(2,4-difluorophenoxy)piperidin-1-yl)phenyl)-2-methoxy-6-methylbenzamide] | 5.8
Cc1cccn2c(=O)c(C(=O)Nc3cc(C#N)ccc3N3CCC(Oc4ccc(F)cc4F)CC3)cnc12 [Example 197, N-(5-cyano-2-(4-(2,4-difluorophenoxy)piperidin-1-yl)phenyl)-9-methyl-4-oxo-4H-pyrido[1,2-a]pyrimidine-3-carboxamide] | 6.7
Cn1cccc(C(=O)Nc2cc(C#N)ccc2N2CCC(C(=O)c3cc(Cl)ccc3F)CC2)c1=O [Example 83] | 6.9
N#Cc1ccc(N2CCC(Oc3ccc(F)cc3F)CC2)c(NC(=O)c2cnc3sccn3c2=O)c1 [Example 200, N-(5-cyano-2-(4-(2,4-difluorophenoxy)piperidin-1-yl)phenyl)-5-oxo-5H-thiazolo[3,2-a]pyrimidine-6-carboxamide] | 6.9
Cn1cccc(C(=O)Nc2cc(C#N)ccc2N2CCC(C(F)(F)c3ccc(F)cc3F)CC2)c1=O [Example 86, N-(5-cyano-2-(4-((2,4-difluorophenyl)difluoromethyl)piperidin-1-yl)phenyl)-1-methyl-2-oxo-1,2-dihydropyridine-3-carboxamide] | 6.8
COc1ncc(C)cc1C(=O)Nc1cc(C(=O)N(C)C)cnc1N1CCC(Oc2ccc(F)cc2F)CC1 [Example 147, 6-(4-(2,4-difluorophenoxy)piperidin-1-yl)-5-(2-methoxy-5-methylnicotinamido)-N,N-dimethylnicotinamide] | 6.9
Cc1ocnc1C(=O)Nc1cc(C#N)ccc1N1CCC(Oc2ccc(F)cc2F)CC1 [Example 127, N-(5-cyano-2-(4-(2,4-difluorophenoxy)piperidin-1-yl)phenyl)-5-methyloxazole-4-carboxamide] | 6.1
Cn1cccc(C(=O)Nc2cc(C#N)ccc2N2CCC(Oc3cc(F)cnc3F)CC2)c1=O [Example 292, N-(5-cyano-2-(4-((2,5-difluoropyridin-3-yl)oxy)piperidin-1-yl)phenyl)-1-methyl-2-oxo-1,2-dihydropyridine-3-carboxamide] | 6.6
Cc1sc2ncc(C(=O)Nc3cc(C#N)ccc3N3CCC(Oc4ccc(F)cc4F)CC3)c(=O)n2c1C [Example 198, N-(5-cyano-2-(4-(2,4-difluorophenoxy)piperidin-1-yl)phenyl)-2,3-dimethyl-5-oxo-5H-thiazolo[3,2-a]pyrimidine-6-carboxamide] | 6.4
Cn1cccc(C(=O)Nc2cc(C#N)ccc2N2CCC(C(F)(F)c3cc(F)ccc3F)CC2)c1=O [Example 88, N-(5-cyano-2-(4-((2,5-difluorophenyl)difluoromethyl)piperidin-1-yl)phenyl)-1-methyl-2-oxo-1,2-dihydropyridine-3-carboxamide] | 6.4
COc1ncccc1C(=O)Nc1cc(C#N)ccc1N1CCN(Cc2ccc(F)cc2C#N)CC1 [Example 291, N-(5-cyano-2-(4-(2-cyano-4-fluorobenzyl)piperazin-1-yl)phenyl)-2-methoxynicotinamide] | 6.9
COc1ncccc1C(=O)Nc1cc(C#N)ccc1N1CCN(Cc2c(F)cccc2F)CC1 [Example 249] | 6.4
Cn1cccc(C(=O)Nc2cc(C#N)ccc2N2CCC(C(F)c3cc(F)ccc3F)CC2)c1=O (stereo not shown) [Example 87] | 7.2
N#Cc1ccc(N2CCC(Oc3ccc(F)cc3F)CC2)c(NC(=O)c2ncoc2C2CC2)c1 [Example 111] | 5.5
COc1ccc(Cl)cc1C(=O)Nc1cc(C#N)ccc1N1CCC(Oc2ccc(F)cc2F)CC1 [Example 211, 5-chloro-N-(5-cyano-2-(4-(2,4-difluorophenoxy)piperidin-1-yl)phenyl)-2-methoxybenzamide] | 6.7
N#Cc1ccc(N2CCC(Oc3ccc(F)cc3F)CC2)c(NC(=O)c2ccon2)c1 [Example 117, N-(5-cyano-2-(4-(2,4-difluorophenoxy)piperidin-1-yl)phenyl)isoxazole-3-carboxamide] | 6.3
COc1ccc(C(=O)C2CCN(c3ccc(C#N)cc3NC(=O)c3cccn(C)c3=O)CC2)c(F)c1 [Example 81, N-(5-cyano-2-(4-(2-fluoro-4-methoxybenzoyl)piperidin-1-yl)phenyl)-1-methyl-2-oxo-1,2-dihydropyridine-3-carboxamide] | 6.9
COc1cccc(C(=O)Nc2cc(C#N)ccc2N2CCC(Oc3ccc(F)cc3F)CC2)c1OC [Example 230] | 7.1
COc1ccc(C(=O)Nc2cc(C#N)ccc2N2CCC(Oc3ccc(F)cc3F)CC2)nc1 [Example 133, N-(5-cyano-2-(4-(2,4-difluorophenoxy)piperidin-1-yl)phenyl)-5-methoxypicolinamide] | 7.1
Cc1nnc(C(=O)Nc2cc(C#N)ccc2N2CCC(Oc3ccc(F)cc3F)CC2)o1 [Example 132, N-(5-cyano-2-(4-(2,4-difluorophenoxy)piperidin-1-yl)phenyl)-5-methyl-1,3,4-oxadiazole-2-carboxamide] | 5.6
Cn1cccc(C(=O)Nc2cc(C#N)ccc2N2CCC([C@H](F)c3ccc(F)cc3F)CC2)c1=O [Example 84, (S)—N-(5-cyano-2-(4-((2,4-difluorophenyl)fluoromethyl)piperidin-1-yl)phenyl)-1-methyl-2-oxo-1,2-dihydropyridine-3-carboxamide] | 6.6
COc1c(C)cccc1C(=O)Nc1cc(C#N)ccc1N1CCC(Oc2ccc(F)cc2F)CC1 [Example 232, N-(5-cyano-2-(4-(2,4-difluorophenoxy)piperidin-1-yl)phenyl)-2-methoxy-3-methylbenzamide] | 6.4
